# Where two headings read alike, the source gives them in different places.
# Columns and labels:
# [1] = system: HL-60 cells; test: Immunofluorescence of cleaved caspase-3; type: cell-based, human; conditions: 10 μM, 24 hrs
# Method: HL-60 cells were treated with the 50 μM of PAC-1 and 10 μM WF-208 for 0.5, 1, 3, 6, 12 and 24 hrs. After such treatment, cells were fixed in 4% paraformaldehyde for 15 min., washed with PBS. Subsequently, cells were blocked with 10% bovine serum albumin (BSA) and Triton X-100 for 1 hr at room temperature and incubated at 4°C overnight with anti-cleaved caspase-3 rabbit mAb (1:100) diluted in 1% BSA. After three times of washing with PBS, cells were incubated with secondary antibody (FITC-conjugated goat anti-rabbit IgG, 1:200) for 1 hr at room temperature. Hoechst 33342 was used as a double staining for the nucleus. After washing with PBS, digital images of the cells captured under with ImageXpress 5000 (Molecular Devices, Sunnyvale, CA, USA). The images were quantified and analysed by using MetaXpress software (Molecular Devices). Cleaved caspase-3 level was expressed as the percentage of positively FITC-stained cells.
# [2] = system: PC-3 xenograft; test: Human prostatic carcinoma PC-3 xenograft mouse model; type: in vivo
# Method: To determine the anti-tumour activity of WF-208 in vivo, viable human prostate cancer PC-3 cells (5 × 10^6/100 μl PBS per mouse) were subcutaneously (s.c.) injected into the right flank of 7- to 8-week old male SCID mice. When the average tumour volume reached 100 mm^3, mice were randomly divided into various treatment and control group (eight mice per group). Tumour size was measured once every 2 days with a calliper (calculated volume = shortest diameter^2 × longest diameter/2). Body weight, diet consumption and tumour size were recorded once every 2 days. After 2 weeks, mice were killed and tumours were excised and stored at −80°C until further analysis.
# [3] = system: procaspase-3-silenced HL-60 cells; test: Cytotoxicity in procaspase-3 silenced HL-60 cells; type: cell-based, human; conditions: different concentrations, 24 hrs, vs scrambled siRNA control
# Method: The cell viability effects of the tested compounds were determined by MTT assay. Cells (1 × 10^4 cells/100 μl/well) were seeded into 96-well culture plates. […] Subsequently, 10 μl MTT solution (2.5 mg/ml in PBS) was added to each well, than the cells were incubated for an additional 3–4 hrs at 37°C. After centrifugation (200 × g, 10 min.), the medium with MTT was aspirated, followed by the addition of 100 μl DMSO. The optical density of each well was measured at 570 nm with a Biotek Synergy TM HT Reader.
# HL-60 cells were transfected with procaspase-3 siRNA (Invitrogen, New York, USA, 100 nmol/l final concentration, Sense siRNA Sequence: GUCUAACUGGAAAACCCAAtt Antisense siRNA Sequence: UUGGGUUUUCCAGUUAGACtt) by Lipofectamine 2000 (Invitrogen) according to the manufacturer’s instructions. Scrambled siRNA (Invitrogen) was control. The cDNA of human procaspase-3 was cloned into pIRES2-EGFP expression vector, and procaspase-3 and EGFP genes were separately expressed. The pIRES2-EGFP and pIRES2-EGFP-procaspase-3 were transiently transfected into MCF-7 cells. Expression of procaspase-3 was verified by western blotting.
# [4] = system: HL-60 and U-937 cell lines; test: Western blot of Bcl-2 family and IAP proteins in HL-60 and U-937; type: cell-based, human; conditions: various concentrations, 24 hrs
# Method: Approximately 1 × 10^7 HL-60 cells were gathered after pre-treatment with PAC-1 and WF-208 as previously described. The tumour tissue protein was purified according to the reported methods. Western blotting was performed as previously described. All antibodies were purchased from Cell Signaling Technology. In brief, an equal amount of total protein extracts from cultured cells or tissues were fractionated by 10–15% SDS-PAGE and electrically transferred onto polyvinylidene difluoride (PVDF) membranes. Different primary antibodies and corresponding horseradish peroxidase-conjugated secondary antibodies were used to detect the proteins. The bound secondary antibodies on the PVDF membrane were reacted with ECL™ Western Blotting Reagents detection reagents (Thermo Fisher, Rockford, USA) and exposed to X-ray films. Results were normalized to the internal control β-actin.
# [5] = system: human normal cells; test: MTT cytotoxicity in human normal cells; type: cell-based
# Excerpt: Human malignant cell lines, A549, Colo-205, DU145, NCI-H226, Hep-3B, Hep-G2, K562, MCF-7, U-87, GBC-SD, MDA-MB-435S, PC-3, U-937, HL60, SH-SY5Y and human normal cell lines, MCF-10A and L-02, HUVEC were obtained from the American Type Culture Collection (Manassas, VA, USA) and National Center for Medical Culture Collection (Shanghai, China). They were routinely cultured in RPMI 1640, DMEM or DMEM/F12 (Gibco, New York, USA) supplemented with 10% foetal bovine serum (Gibco, New York, USA) and maintained at 37°C in a humidified incubator with 5% CO2.
# Human peripheral blood lymphocytes were obtained as described previously. In brief, after diluting blood with PBS, lymphocytes were isolated by centrifugation over a density gradient of lymphocytes extracting solution for 15 min. at 280 × g. The cells were harvested, washed with PBS twice, and suspended in complete RPMI 1640 (Gibco, New York, USA) with 10% foetal bovine serum (Gibco, New York, USA).
# The cell viability effects of the tested compounds were determined by MTT assay. Cells (1 × 10^4 cells/100 μl/well) were seeded into 96-well culture plates. After overnight incubation, cells were treated with various concentrations of compounds for 72 hrs. […] The optical density of each well was measured at 570 nm with a Biotek Synergy TM HT Reader.
# [6] = Western blot of tumour tissue after drug exposure
compound,measurement,setting,value
O=C(CN1CCN(Cc2nc(-c3ccc(COc4ccc(Cl)cc4)cc3)no2)CC1)N/N=C/c1ccc(OCc2csc(Cc3ccc4c(c3)OCO4)n2)cc1O [C2],cells with procaspase-3 cleaved,[1],more than 60%
same,influence on body weight,"[2]; 2.5 mg/kg i.v., 15 days",minimal influence
same,tumour volume compared with control group,"[2]; 2.5 mg/kg i.v., 15 days",significantly reduced
same,expression of activated caspase-3 and cleaved PARP in tumour tissue,[2]; [6],increased
same,expression of survivin and XIAP in tumour tissue,[2]; [6],decreased
same,cytotoxic effect in procaspase-3-silenced HL-60 cells,[3],less than control HL-60 cells
same,"expression of Bcl-2 family members Bcl-2, Bcl-xl, Bax and BID",[4],not changed
same,expression of XIAP and survivin,[4],significantly down-regulated
same,IC50,"[5]; Figure 3 panel D, read-out: Mean (IC50) of human normal cells",348 µM
same,IC50,"[5]; text b44, read-out: mean IC50 value on three different normal cells",216 µM
